Test results published in patent US9884818B2, “Sulphamoylpyrrolamide derivatives and the use thereof as medicaments for the treatment of hepatitis B” (Janssen Sciences Ireland UC, priority 2013, dated 2018).

What was measured:
[1] = test system: HBV; assay: Anti-HBV activity, HepG2.2.15 stable transfected cell line, HBV DNA from secreted virions by realtime PCR; type: cell-based; details: Hepatitis B virus, HepG2.2.15, 144 h, HepG2.2.15 cells, 6 days of treatment, HBV DNA from secreted virions; read-out: HepG2 2.15 EC50
[2] = Cytotoxicity in HepG2 cells, Resazurin viability assay; details: human, HepG2 cells, HepG2 4 days CC50 (μM), incubated for 4 days, Resazurin assay
[3] = test system: HBV; assay: Anti-HBV activity, HepG2.117 inducibly HBV producing cell line (Tet-off), intracellular HBV DNA by realtime PCR; type: cell-based; details: Hepatitis B virus, HepG2.117, 72 h, HepG2.117 cells, 3 days of treatment, intracellular HBV DNA; read-out: HepG2 117 EC50

CC(C)NS(=O)(=O)c1cc(C(=O)Nc2cc(F)c(F)c(Br)c2)n(C)c1 [Compound 46, N-(3-bromo-4,5-difluoro-phenyl)-4-(isopropylsulfamoyl)-1-methyl-pyrrole-2-carboxamide]
EC50 [1]: 120 nM
CC50 at 4 days [2]: > 25 µM
EC50 [3]: 170 nM

Cn1cc(S(=O)(=O)NC(C)(C)C)cc1C(=O)Nc1cc(Cl)c(F)c(Cl)c1 [Compound 76, 4-(tert-Butylsulfamoyl)-N-(3,5-dichloro-4-fluorophenyl)-1-methyl-1H-pyrrole-2-carboxamide]
EC50 [1]: 180 nM
CC50 at 4 days [2]: > 25 µM
EC50 [3]: 130 nM

C[C@@H](NS(=O)(=O)c1cn(C)c(C(=O)Nc2ccc(F)c(F)c2)c1Cl)C(F)(F)F [Compound 217, 3-Chloro-N-(3,4-difluorophenyl)-1-methyl-4-{[(1R)-2,2,2-trifluoro-1-methylethyl]sulfamoyl}-1H-pyrrole-2-carboxamide]
EC50 [1]: 5 nM
CC50 at 4 days [2]: > 25 µM
EC50 [3]: 5 nM

C[C@@H](NS(=O)(=O)c1cn(C)c(C(=O)Nc2ccc(F)c(F)c2F)c1F)C(F)(F)F [Compound 183, 3-Fluoro-1-methyl-4-{[(1R)-2,2,2-trifluoro-1-methylethyl]sulfamoyl}-N-(2,3,4-trifluorophenyl)-1H-pyrrole-2-carboxamide]
EC50 [1]: 20 nM
CC50 at 4 days [2]: > 25 µM
EC50 [3]: 10 nM

Cn1cc(S(=O)(=O)N[C@H]2CCOC2)cc1C(=O)Nc1cc(F)c(F)c(F)c1 [Compound 26, 1-methyl-[[(3S)-tetrahydrofuran-3-yl]sulfamoyl]-N-(3,4,5-trifluoro-phenyl)pyrrole-2-carboxamide]
EC50 [1]: 140 nM
CC50 at 4 days [2]: > 25 µM
EC50 [3]: 260 nM

C[C@@H](NS(=O)(=O)c1cc(C(=O)Nc2ccc(F)c(Cl)c2F)n(C)c1)C(F)(F)F [Compound 120, N-(3-Chloro-2,4-difluorophenyl)-1-methyl-4-{[(1R)-2,2,2-trifluoro-1-methylethyl]sulfamoyl}-1H-pyrrole-2-carboxamide]
EC50 [1]: 30 nM
CC50 at 4 days [2]: > 25 µM
EC50 [3]: 30 nM

COCc1c(S(=O)(=O)N[C@H](C)C(F)(F)F)c(F)c(C(=O)Nc2ccc(F)c(C#N)c2)n1C [Compound 309, N-(3-cyano-4-fluoro-phenyl)-3-fluoro-5-(methoxymethyl)-1-methyl-4-[[(1R)-2,2,2-trifluoro-1-methyl-ethyl]sulfamoyl]pyrrole-2-carboxamide]
EC50 [1]: 530 nM
CC50 at 4 days [2]: > 25 µM
EC50 [3]: 320 nM

Cn1cc(S(=O)(=O)NC2(C)COC2)cc1C(=O)Nc1ccc(Cl)c(F)c1 [Compound 84]
EC50 [1]: 460 nM
CC50 at 4 days [2]: > 25 µM
EC50 [3]: 610 nM

CNC(=O)C(C)(C)NS(=O)(=O)c1cc(C(=O)Nc2ccc(F)c(C)c2)n(C)c1 [Compound 62, 4-[[1,1-dimethyl-2-(methylamino)-2-oxo-ethyl]sulfamoyl]-N-(4-fluoro-3-methyl-phenyl)-1-methyl-pyrrole-2-carboxamide]
EC50 [1]: 270 nM
CC50 at 4 days [2]: > 25 µM
EC50 [3]: 140 nM

Cn1cc(S(=O)(=O)NC2(C)COC2)cc1C(=O)Nc1cc(F)c(F)c(F)c1 [Compound 27, 1-methyl-4-[(3-methyloxetan-3-yl)sulfamoyl]-N-(3,4,5-trifluorophenyl)pyrrole-2-carboxamide]
EC50 [1]: 40 nM
CC50 at 4 days [2]: > 25 µM
EC50 [3]: 60 nM

CC[C@@H](C)NS(=O)(=O)c1cn(C)c(C(=O)Nc2ccc(F)c(C#N)c2)c1Cl [Compound 295, 3-chloro-N-(3-cyano-4-fluoro-phenyl)-1-methyl-4-[[(1R)-1-methyl-propyl]sulfamoyl]pyrrole-2-carboxamide]
EC50 [1]: 20 nM
CC50 at 4 days [2]: > 25 µM
EC50 [3]: 30 nM

Cn1cc(S(=O)(=O)NC2(C(F)(F)F)CCC2)c(Cl)c1C(=O)Nc1ccc(F)c(Cl)c1F [Compound 219, 3-Chloro-N-(3-chloro-2,4-difluorophenyl)-1-methyl-4-{[1-(trifluoro-methyl)cyclobutyl]sulfamoyl}-1H-pyrrole-2-carboxamide]
EC50 [1]: 10 nM
CC50 at 4 days [2]: > 25 µM
EC50 [3]: 9 nM

Cn1cc(S(=O)(=O)NC2(C(F)(F)F)CCC2)cc1C(=O)Nc1ccc(F)c(C#N)c1 [Compound 241, N-(3-Cyano-4-fluorophenyl)-1-methyl-4-{[1-(trifluoromethyl)cyclo-butyl]sulfamoyl}-1H-pyrrole-2-carboxamide]
EC50 [1]: 10 nM
CC50 at 4 days [2]: > 25 µM
EC50 [3]: 10 nM

CC[C@H](NS(=O)(=O)c1cn(C)c(C(=O)Nc2ccc(F)c(C#N)c2)c1Cl)C(F)(F)F [Compound 289, 3-chloro-N-(3-cyano-4-fluoro-phenyl)-1-methyl-4-[[(15)-1-(trifluoro-methyl)propyl]sulfamoyl]pyrrole-2-carboxamide]
EC50 [1]: 40 nM
CC50 at 4 days [2]: > 25 µM
EC50 [3]: 50 nM

Cc1c(S(=O)(=O)N[C@H](C)C(F)(F)F)c(Cl)c(C(=O)Nc2ccc(F)c(C#N)c2)n1C [Compound 282, 3-chloro-N-(3-cyano-4-fluoro-phenyl)-1,5-dimethyl-4-[[(1R)-2,2,2-trifluoro-1-methyl-ethyl]sulfamoyl]pyrrole-2-carboxamide]
EC50 [1]: < 5 nM
CC50 at 4 days [2]: > 25 µM
EC50 [3]: 5 nM

Cn1cc(S(=O)(=O)NC2(C(F)(F)F)CCOC2)cc1C(=O)Nc1ccc(F)c(Cl)c1F (stereo not drawn) [Compound 266, N-(3-chloro-2,4-difluoro-phenyl)-1-methyl-4-{[3-(trifluoromethyl)-tetrahydrofuran-3-yl]sulfamoyl}-1H-pyrrole-2-carboxamide]
EC50 [1]: 20 nM
CC50 at 4 days [2]: > 25 µM
EC50 [3]: 30 nM

Cn1cc(S(=O)(=O)NC2(C)COC2)c(F)c1C(=O)Nc1cccc(Br)c1 [Compound 251, N-(3-Bromophenyl)-3-fluoro-1-methyl-4-[(3-methyloxetan-3-yl)sulfamoyl]-1H-pyrrole-2-carboxamide]
EC50 [1]: 10 nM
CC50 at 4 days [2]: > 25 µM
EC50 [3]: 60 nM

Cn1cc(S(=O)(=O)NC2(C)COC2)c(F)c1C(=O)Nc1ccc(F)c(F)c1 [Compound 74, N-(3,4-difluorophenyl)-3-fluoro-1-methyl-4-[(3-methyloxetan-3-yl)-sulfamoyl]pyrrole-2-carboxamide]
EC50 [1]: 20 nM
CC50 at 4 days [2]: > 25 µM
EC50 [3]: 20 nM

Cc1c(F)ccc(NC(=O)c2cc(S(=O)(=O)NC(C)C)cn2C)c1F [Compound 99, N-(2,4-Difluoro-3-methylphenyl)-1-methyl-4-[(1-methylethyl)sulfamoyl]-1H-pyrrole-2-carboxamide]
EC50 [1]: 130 nM
CC50 at 4 days [2]: > 25 µM
EC50 [3]: 100 nM

Cc1c(S(=O)(=O)NC(C)C)cn(C)c1C(=O)Nc1ccc(F)c(Cl)c1F [Compound 208, N-(3-Chloro-2,4-difluorophenyl)-1,3-dimethyl-4-[(1-methylethyl)sulfamoyl]-1H-pyrrole-2-carboxamide]
EC50 [1]: 200 nM
CC50 at 4 days [2]: > 25 µM
EC50 [3]: 660 nM

Cn1cc(S(=O)(=O)NCC(F)F)cc1C(=O)Nc1ccc(F)c(C#N)c1 [Compound 126, N-(3-Cyano-4-fluorophenyl)-4-[(2,2-difluoroethyl)sulfamoyl]-1-methyl-1H-pyrrole-2-carboxamide]
EC50 [1]: 590 nM
CC50 at 4 days [2]: > 25 µM
EC50 [3]: 230 nM

CC(C)NS(=O)(=O)c1cc(C(=O)Nc2cc(F)c(F)c(C#N)c2)n(C)c1 [Compound 52, N-(3-cyano-4,5-difluoro-phenyl)-4-(isopropylsulfamoyl)-1-methyl-pyrrole-2-carboxamide]
EC50 [1]: 260 nM
CC50 at 4 days [2]: > 25 µM
EC50 [3]: 330 nM

Cc1cc(NC(=O)c2cc(S(=O)(=O)NC3(CC#N)COC3)cn2C)ccc1F [Compound 17, 4-[[3-(cyanomethyl)oxetan-3-yl]sulfamoyl]-N-(4-fluoro-3-methyl-phenyl)-1-methyl-pyrrole-2-carboxamide]
EC50 [1]: 30 nM
CC50 at 4 days [2]: > 25 µM
EC50 [3]: 20 nM

Cn1cc(S(=O)(=O)NC(C)(C)CCO)cc1C(=O)Nc1ccc(F)c(C#N)c1 [Compound 296, N-(3-cyano-4-fluoro-phenyl)-4-[(3-hydroxy-1,1-dimethyl-propyl)sulfamoyl]-1-methyl-pyrrole-2-carboxamide]
EC50 [1]: 100 nM
CC50 at 4 days [2]: > 25 µM
EC50 [3]: 230 nM

[2H]c1cc(F)c(C)c([2H])c1NC(=O)c1cc(S(=O)(=O)NC(C)(C)C)cn1C [Compound 67, 4-(tert-butylsulfamoyl)-N-(2,6-dideuterio-4-fluoro-3-methyl-phenyl)-1-methyl-pyrrole-2-carboxamide]
EC50 [1]: 20 nM
CC50 at 4 days [2]: > 25 µM
EC50 [3]: 30 nM

Cn1cc(S(=O)(=O)NC2(C)COC2)c(F)c1C(=O)Nc1cc(F)c(F)cc1F [Compound 109, 3-Fluoro-1-methyl-4-[(3-methyloxetan-3-yl)sulfamoyl]-N-(2,4,5-trifluorophenyl)-1H-pyrrole-2-carboxamide]
EC50 [1]: 240 nM
CC50 at 4 days [2]: > 25 µM
EC50 [3]: 100 nM

[2H]c1c(F)c(F)c(F)c([2H])c1NC(=O)c1cc(S(=O)(=O)NC(C)(C)C)cn1C [Compound 71, 4-(tert-butylsulfamoyl)-N-(2,6-dideuterio-3,4,5-trifluoro-phenyl)-1-methyl-pyrrole-2-carboxamide]
EC50 [1]: 100 nM
CC50 at 4 days [2]: > 25 µM
EC50 [3]: 130 nM

Cc1cc(NC(=O)c2cc(S(=O)(=O)NC3(C)COC3)cn2C)cc(F)c1F [Compound 35, N-(3,4-difluoro-5-methyl-phenyl)-1-methyl-4-[(3-methyloxetan-3-yl)-sulfamoyl]pyrrole-2-carboxamide]
EC50 [1]: 30 nM
CC50 at 4 days [2]: > 25 µM
EC50 [3]: 20 nM

Cc1cc(NC(=O)c2cc(S(=O)(=O)NC3(C)COC3)cn2C)ccc1C#N [Compound 83]
EC50 [1]: > 1000 nM
CC50 at 4 days [2]: > 25 µM
EC50 [3]: 1350 nM
